Data taken from ChEMBL document CHEMBL3351747, “Structure-based design of β1i or β5i specific inhibitors of human immunoproteasomes” (J Med Chem, 2014).

Tests used:
[1] = target: T1, Proteasome subunit beta type-8 (Homo sapiens, UniProt P28062); experiment: Inhibition of proteasome subunit beta-5i in human Raji cells using BODIPY-NC005 by fluorescent densitometry; format: cell-based
T1 sequence (P28062 whole entry): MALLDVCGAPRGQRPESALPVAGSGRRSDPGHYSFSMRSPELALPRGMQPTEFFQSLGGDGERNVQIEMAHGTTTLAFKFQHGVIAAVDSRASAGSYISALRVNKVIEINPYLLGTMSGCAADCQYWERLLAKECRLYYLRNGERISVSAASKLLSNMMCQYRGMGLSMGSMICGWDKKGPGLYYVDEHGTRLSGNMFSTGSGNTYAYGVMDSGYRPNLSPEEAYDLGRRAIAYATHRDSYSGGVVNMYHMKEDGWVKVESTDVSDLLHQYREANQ

[2] = Inhibition of 20s proteasome subunit beta-5c in human Raji cells using BODIPY-NC005 by fluorescent densitometry; format: cell-based
[3] = target: T2, Proteasome subunit beta type-10 (Homo sapiens, UniProt P40306); experiment: Inhibition of proteasome subunit beta-2i in human RPMI8226 cells using BODIPY-epoxomicin by fluorescent densitometry; format: cell-based, RPMI-8226
T2 sequence (P40306 whole entry): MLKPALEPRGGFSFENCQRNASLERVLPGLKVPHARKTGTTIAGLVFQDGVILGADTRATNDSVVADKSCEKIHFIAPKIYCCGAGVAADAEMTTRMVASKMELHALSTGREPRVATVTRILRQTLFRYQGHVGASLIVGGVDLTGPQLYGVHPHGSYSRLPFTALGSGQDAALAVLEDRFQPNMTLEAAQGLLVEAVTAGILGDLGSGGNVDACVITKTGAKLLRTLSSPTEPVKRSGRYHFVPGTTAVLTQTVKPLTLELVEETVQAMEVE

[4] = target: T1, Proteasome subunit beta type-8; experiment: Inhibition of proteasome subunit beta-5i in human RPMI8226 cells using BODIPY-NC005 by fluorescent densitometry; format: cell-based, RPMI-8226
[5] = Inhibition of 20s proteasome subunit beta-2c in human RPMI8226 cells using BODIPY-epoxomicin by fluorescent densitometry; format: cell-based; conditions: rpmi-8226
[6] = Inhibition of 20s proteasome subunit beta-1c in human RPMI8226 cells using BODIPY-NC001 by fluorescent densitometry; format: cell-based; conditions: rpmi-8226
[7] = Inhibition of 20s proteasome subunit beta-1c in human Raji cells using BODIPY- epoxomicin by fluorescent densitometry; format: cell-based
[8] = Inhibition of 20s proteasome subunit beta-2c in human Raji cells using BODIPY- epoxomicin by fluorescent densitometry; format: cell-based
[9] = target: T3, Proteasome subunit beta type-9 (Homo sapiens, UniProt P28065); experiment: Inhibition of proteasome subunit beta-1i in human RPMI8226 cells using BODIPY-NC001 by fluorescent densitometry; format: cell-based, RPMI-8226
T3 sequence (P28065 whole entry): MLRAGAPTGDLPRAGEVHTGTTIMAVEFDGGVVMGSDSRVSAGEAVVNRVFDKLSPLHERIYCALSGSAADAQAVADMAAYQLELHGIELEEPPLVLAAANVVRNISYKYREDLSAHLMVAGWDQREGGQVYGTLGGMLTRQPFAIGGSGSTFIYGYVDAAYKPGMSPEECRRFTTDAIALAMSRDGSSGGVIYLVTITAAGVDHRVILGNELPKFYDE

[10] = target: T2, Proteasome subunit beta type-10; experiment: Inhibition of proteasome subunit beta-2i in human Raji cells using BODIPY- epoxomicin by fluorescent densitometry; format: cell-based
[11] = target: T3, Proteasome subunit beta type-9; experiment: Inhibition of proteasome subunit beta-1i in human Raji cells using BODIPY- epoxomicin by fluorescent densitometry; format: cell-based
[12] = Inhibition of 20s proteasome subunit beta-5c in human RPMI8226 cells using BODIPY-NC005 by fluorescent densitometry; format: cell-based; conditions: rpmi-8226
[13] = test system: Raji; experiment: Ratio of IC50 for 20s proteasome subunit beta-1c to IC50 for proteasome subunit beta-1i in human Raji cells; format: cell-based

Compound | IC50 [1] | IC50 [2] | IC50 [7] | IC50 [11] | other results
COc1ccc(C[C@H](NC(=O)[C@H](C)NC(=O)CN2CCOCC2)C(=O)N[C@H](/C=C/S(C)(=O)=O)Cc2ccccc2)cc1 | 392 nM | 14000 nM | – | – | –
C[C@@H](NC(=O)CN1CCOCC1)C(=O)N[C@@H](Cc1c[nH]c2ccccc12)C(=O)N[C@@H](Cc1ccccc1)C(=O)[C@@]1(C)CO1 | 13 nM | 104 nM | – | – | –
COc1ccc(C[C@H](NC(=O)[C@@H](C)NC(=O)C2=C(C)c3ccccc3C2)C(=O)N[C@@H](Cc2ccccc2)C(=O)[C@@]2(C)CO2)cc1 | 3 nM | 157 nM | – | – | –
CC1=C(C(=O)N[C@H](C)C(=O)N[C@@H](Cc2c[nH]c3ccccc23)C(=O)N[C@@H](CC2CCCCC2)C(=O)[C@@]2(C)CO2)Cc2ccccc21 | 8.3 nM | 4600 nM | > 10000 nM | 7100 nM | IC50 [3]: > 100 µM; IC50 [4]: 230 nM; IC50 [5]: > 100 µM; IC50 [6]: > 100 µM; IC50 [8]: > 10 µM; IC50 [9]: 16 µM; IC50 [10]: > 10 µM; IC50 [12]: > 100000 nM
COc1ccc(C[C@H](NC(=O)[C@H](C)NC(=O)C2=C(C)c3ccccc3C2)C(=O)N[C@@H](Cc2ccccc2)C(=O)[C@@]2(C)CO2)cc1 | 5 nM | 6 nM | – | – | –
CCCC[C@H](NC(=O)[C@@H]1CCCN1C(=O)[C@H](C)NC(=O)CN=[N+]=[N-])C(=O)N[C@@H](Cc1ccccc1)C(=O)[C@@]1(C)CO1 | – | – | 580 nM | 66 nM | Ratio IC50 [13]: 9; IC50 [10]: > 100 µM
C[C@@H](NC(=O)CN1CCOCC1)C(=O)N[C@@H](Cc1c[nH]c2ccccc12)C(=O)N[C@@H](Cc1ccc(-c2ccccc2)cc1)C(=O)[C@@]1(C)CO1 | 2.1 nM | 14 nM | – | – | –
CCCCCCC(=O)N[C@@H](C)C(=O)N[C@@H](CC(C)C)C(=O)[C@@]1(CO[Si](C)(C)C(C)(C)C)CO1 | – | – | 15000 nM | 104 nM | Ratio IC50 [13]: 144; IC50 [10]: 25 µM
COc1ccc(C[C@H](NC(=O)[C@H](C)NC(=O)CN2CCOCC2)C(=O)N[C@@H](CC23CC4CC(CC(C4)C2)C3)C(=O)[C@@]2(C)CO2)cc1 | > 50000 nM | > 50000 nM | – | – | –
CCCC[C@H](NC(=O)[C@@H]1C[C@@H](F)CN1C(=O)[C@H](C)NC(=O)CN=[N+]=[N-])C(=O)N[C@@H](CC(C)C)C(=O)[C@@]1(C)CO1 | – | – | 66 nM | 22 nM | Ratio IC50 [13]: 3
CCCC[C@H](NC(=O)[C@@H]1CSCN1C(=O)[C@H](C)NC(=O)CN=[N+]=[N-])C(=O)N[C@@H](CC(C)C)C(=O)[C@@]1(C)CO1 | – | – | 240 nM | 68 nM | Ratio IC50 [13]: 6.5
CC1=C(C(=O)N[C@H](C)C(=O)N[C@@H](Cc2c[nH]c3ccccc23)C(=O)N[C@@H](Cc2ccccc2)C(=O)[C@@]2(C)CO2)Cc2ccccc21 | 2.5 nM | 227 nM | > 10000 nM | 1840 nM | IC50 [3]: > 100 µM; IC50 [4]: 25 nM; IC50 [5]: > 100 µM; IC50 [6]: > 100 µM; IC50 [8]: > 10 µM; IC50 [9]: 3.5 µM; IC50 [10]: > 10 µM; IC50 [12]: 2900 nM
COc1ccc(C[C@H](NC(=O)[C@@H](C)NC(=O)CN2CCOCC2)C(=O)N[C@@H](CC2CCCCC2)C(=O)[C@@]2(C)CO2)cc1 | 36 nM | – | – | > 10000 nM | IC50 [4]: 100 nM; IC50 [9]: 7.3 µM
COc1ccc(C[C@H](NC(=O)[C@@H](C)NC(=O)CN2CCOCC2)C(=O)N[C@@H](Cc2ccccc2)C(=O)[C@@]2(C)CO2)cc1 | – | 116 nM | – | – | –
CCCC[C@H](NC(=O)[C@@H]1CCCN1C(=O)[C@H](C)NC(=O)CN=[N+]=[N-])C(=O)N[C@@H](CC1CCCCC1)C(=O)[C@@]1(C)CO1 | – | – | 3400 nM | 87 nM | Ratio IC50 [13]: 39; IC50 [10]: > 30 µM
COc1ccc(C[C@H](NC(=O)[C@@H](C)NC(=O)C2=C(C)c3ccccc3C2)C(=O)N[C@@H](Cc2ccc(-c3ccccc3)cc2)C(=O)[C@@]2(C)CO2)cc1 | 3.3 nM | 43 nM | – | – | –
COc1ccc(C[C@H](NC(=O)[C@@H](C)NC(=O)CN2CCOCC2)C(=O)N[C@@H](Cc2ccc(-c3ccccc3)cc2)C(=O)[C@@]2(C)CO2)cc1 | 1.2 nM | 9.9 nM | – | – | –
